Measurements: patent US20100009920A1, “TTK AS TUMOR MARKER AND THERAPEUTIC TARGET FOR LUNG CANCER” (priority 2006, published 2010)
Entries after “also recorded” stand apart in the source; their conditions may differ.

Legend:
[1] = system: TTK; experiment: Semiquantitative RT-PCR of TTK expression after transfection of siRNA-expression plasmids; type: cell-based, human; details: LC319 and A549 cells, versus control siRNAs (LUC, SCR)
Experimental: Total RNA was extracted from cultured cells and clinical tissues using Trizol reagent (Life Technologies, Inc.) according to the manufacturer's protocol. Extracted RNAs and normal human tissue poly(A) RNAs were treated with DNase I (Nippon Gene) and were reverse-transcribed using oligo(dT)20 primer and SuperScript II reverse transcriptase (Invitrogen). Semiquantitative RT-PCR experiments were carried out with the following synthesized gene-specific primers or with beta-actin (ACTB)-specific primers as an internal control: TTK,
A vector-based RNA interference (RNAi) system, psiH1BX3.0, had previously established to direct the synthesis of siRNAs in mammalian cells (Suzuki et al., 2003, 2005; Kato et al, 2005; Furukawa et al, 2005). 10 micro-g of siRNA-expression vector were transfected into NSCLC cell lines LC319 and A549 both of which over-expressed TTK endogenously, using 30 micro-1 of Lipofectamine 2000 (Invitrogen). The transfected cells were cultured for five days in the presence of appropriate concentrations of geneticin (G418), after which cell numbers and viability were measured by Giemsa staining and triplicate MTT assays. […]

[2] = system: LC319 and A549 cells; experiment: MTT and colony-formation assays after transfection of siRNA-expression plasmids; type: cell-based, human
Experimental: A vector-based RNA interference (RNAi) system, psiH1BX3.0, had previously established to direct the synthesis of siRNAs in mammalian cells (Suzuki et al., 2003, 2005; Kato et al, 2005; Furukawa et al, 2005). 10 micro-g of siRNA-expression vector were transfected into NSCLC cell lines LC319 and A549 both of which over-expressed TTK endogenously, using 30 micro-1 of Lipofectamine 2000 (Invitrogen). The transfected cells were cultured for five days in the presence of appropriate concentrations of geneticin (G418), after which cell numbers and viability were measured by Giemsa staining and triplicate MTT assays. The target sequences of the synthetic oligonucleotides for RNAi were as follows: control 1 (Luciferase: Photinus pyralis luciferase gene), 5′-CGTACGCGGAATACTTCGA-3′ (SEQ ID NO: 9); control 2 (Scramble: chloroplast Euglena gracilis gene coding for 5S and 16S rRNAs),

[3] = system: A549 cells; experiment: Microscopic observation of cell morphology (phase contrast images); type: cell-based, human; details: non-treated cells as control
Experimental: (§1) The oligo-siRNAs (Dharmacon, Inc., Lafayette, Colo.) ([…]) were transfected into appropriate lung-cancer cell lines using 30 micro-1 of Lipofectamine 2000 (Invitrogen, Carlsbad, Calif.) following the manufacturer's protocol. The ribonucleotide sequences corresponding to following sequences were used as the oligo-siRNA.
The endogenous association between TTK and EGFR in lung cancer cells was also investigated by immunoprecipitaion experiment using extracts from A549 cells, and the interaction between these two proteins regardless the EGF-stimulation was detected (FIG. 4b). To further examine the relevance of TTK to EGFR signaling, TTK or EGFR function in A549 cells were suppressed and cell morphology was microscopically observed.

[4] = system: TTK; experiment: In vitro kinase assay, phosphorylation of active-rhEGFR by recombinant TTK; type: biochemical, human; details: active-rhEGFR pre-treated with inhibitor, recombinant TTK present
Excerpt: The full-length cDNA of TTK was subcloned into pFastBac HT vector. The recombinant shuttle vector was transformed into the baculovirus genome (bacmid DNA) in DH10Bac competent cells (Invitrogen) by using Tn7 site-specific transposition according to the minufacture's instructions for the Bac-to-Bac expression system (Invitrogen). The recombinant bacmid DNA was isolated, purified, transfected into Sf9 cells (Invitrogen) (recombinant baculovirus), and used for next infection. Log-phase Sf-9 cells were infected with recombinant baculovirus at a multiplicity of infection (MOI) of 1, and then infected Sf-9 cells were grown in suspension at 27° C. for 72 hours. Extracts of Sf-9 cells were collected and the His fusion proteins were purified using HiTrap HP column (GE Healthcare Bio-sciences) using standard protocols. […] TTK-KD was cloned into pGEX6T vector (GE Healthcare Bio-sciences). GST fusion protein was expressed in E. coli stain BL21 and purified by Glutathione Sepharose 4B (GE Healthcare Bio-sciences) using standard protocols. […]
The EGFR tyrosine phosphorylation sites were further evaluated by TTK using GST-tagged proteins containing various cytoplasmic region of EGFR as substrates (EGFR-DEL1, −DEL2, and −DEL3; FIG. 4e). […]

[5] = system: catalytically-active recombinant GST-tagged human EGFR (active-rhEGFR); experiment: In vitro kinase assay, autophosphorylation of active-rhEGFR (western blot with anti-phospho-tyrosine antibodies); type: biochemical; details: in the presence of ATP, no recombinant TTK
[6] = system: HEK293 cells; experiment: MTT assay of TTK- or mock-stable transfectants of HEK293 transfected with RNAi-EGFR; type: cell-based
Experimental: as §1
TTK-expressing stable transfectants were established according to a standard protocol. Using FuGENE 6 Transfection Reagent (Roche Diagnostics), we transfected HEK293 and NIH3T3 cells with plasmids expressing TTK (pCAGGS-n3FH-TTK) or mock plasmids (pCAGGS-n3FH). Transfected cells were cultured in DMEM containing 10% FCS and G418, then individual colonies were trypsinized and screened for stable transfectants by a limiting-dilution assay. Expression of TTK was determined in each clone by RT-PCR, western blotting, and immunostaining. HEK293 or NIH3T3 transfectants that stably expressed TTK were seeded onto 6-well plates (5×10^4 cells/well), and maintained in medium containing 10% FCS and 0.4 mg/ml G418 for 7 days. At each time point, cell proliferation was evaluated by the MTT assay using Cell Counting Kits (WAKO). All experiments were done in triplicate.

[7] = system: HEK293 cells; experiment: Matrigel invasion assay of TTK- or mock-stable transfectants of HEK293 transfected with RNAi-EGFR; type: cell-based
[8] = system: A549 cells; experiment: MTT assay of A549 cells treated with cell-permeable 11R-EGFR peptides; type: cell-based, human; details: A549 cells, 2.5, 5 and 7.5 micro-mol/L, 5 days
Experimental: 17˜31 amino acid peptide sequences corresponding to a part of EGFR protein that contained possible TTK-interacting region were covalently linked at its NH2 terminus to a membrane transducing 11 poly-arginine sequence (Hayama, S, et al. Cancer Res. 66, 10339-48 (2006), Futaki S, et al. J Biol. Chem. 276, 5836-5840 (2001)). Three cell-permeable peptides were synthesized:
Peptides were purified by preparative reverse-phase high-pressure liquid chromatography. A549 cells were incubated with the 11R peptides at the concentration of 2.5, 5, and 7.5 micro-mol/L for 5 days. The medium was exchanged at every 48 hours at the appropriate concentrations of each peptide and the viability of cells was evaluated by MTT assay at 5 days after the treatment.

Compound: 5′-ACAGTGTTCCGCTAAGTGA-3′ [si-TTK-1]
- amount of TTK transcript [1]: significantly decreased
- cell viability (MTT assay) ([2]; versus two control siRNAs): reduced significantly
- colony numbers (colony-formation assay) ([2]; versus two control siRNAs): reduced significantly

Compound: 5′-ATCACGGACCAGTACATCT-3′ [si-TTK-2]
- amount of TTK transcript [1]: weaker reduction
- growth-suppressive effect [2]: modest growth-suppressive effect

Compound: COc1cc2ncnc(Nc3cccc(Cl)c3)c2cc1OC [AG1478, tryphostin 4-(3-chloroanilino)-6,7-dimethoxyquinazoline]
- cell morphology [3]: became much larger with multiple nuclei
- phosphorylation of active-rhEGFR by TTK [4]: not inhibited
- phosphorylation of active-rhEGFR by TTK ([4]; listed as AG1378): detected in the presence of recombinant TTK
- autophosphorylation of active-rhEGFR on tyrosine [5]: inhibited
- autophosphorylation of active-rhEGFR on tyrosine ([5]; listed as AG1378): not detected

Compound: GTAACAAGCTCACGCAGTTTT (listed as DNA, chemistry not given here) [RNAi-EGFR (oligo)]
- TTK-induced cell proliferation ([6]; HEK293 transfectants stably expressing TTK, P=0.0032): significantly reduced
- proliferation of HEK293 control cells ([6]; control cells transfected with mock vector, P=0.2439): scarcely reduced
- TTK-induced cell invasion through Matrigel ([7]; TTK-transfected HEK293 cells, P<0.0001): reduced to near the basal level
- Invasion of the control cells through Matrigel ([7]; mock-transfected HEK293 cells): slightly reduced
- cell morphology [3]: became much larger with multiple nuclei

Compound: RRRRRRRRRRR-GGG-DVYMIMVKCWMIDADSRPK (An artificially synthesised dominant negative peptide) [11R-EGFR918-936]
- cell viability (MTT assay) [8]: significant decreases

Compound: RRRRRRRRRRR-GGG-EFMAELLRYFRPQSKRDII (RRRRRRRRRRRGGGEFMAELLRYFRPQSKRDII) [scramble peptides, Scramble peptides derived from 11R-EGFR937-955, synthesized as a control, reference compound]
- cell viability (MTT assay) [8]: no growth-suppressive effect

Compound: RRRRRRRRRRR-GGG-FRELIIEFSKMARDPQRYL (An artificially synthesised dominant negative peptide) [11R-EGFR937-955]
- cell viability (MTT assay) [8]: most effective; also recorded: significant decreases

Compound: RRRRRRRRRRR-GGG-ISSILEKGERLPQPPICTI (An artificially synthesised dominant negative peptide) [11R-EGFR899-917]
- cell viability (MTT assay) [8]: significant decreases
